Assay results taken from ChEMBL document CHEMBL1201862, “PubChem BioAssay data set” (2004).
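Five compound concentrations were applied to cells in 96-well plates for 48 hours; endpoints were derived by simple linear interpolation of the resulting dose-response curve. Here, GI50 denotes the concentration required for 50% inhibition of growth.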 The source made the active and inactive calls. No stated cut-off is given here; in the data, active = GI50 up to about 1.1 µM and inactive = higher.

Tests used:
Experiment in all cases: DTP human tumour cell line panel, 48 h
[1] = tested on: NCI-H23
[2] = tested on: SK-MEL-5
[3] = tested on: SF-268
[4] = tested on: UACC-62
[5] = tested on: OVCAR-5
[6] = tested on: BT-549
[7] = tested on: PC-3
[8] = tested on: SNB-19
[9] = tested on: MDA-MB-435
[10] = tested on: OVCAR-8
[11] = tested on: SK-OV-3
[12] = tested on: MDA-N
[13] = tested on: UACC-257
[14] = tested on: NCI-H522
[15] = tested on: SK-MEL-2
[16] = tested on: SN12C
[17] = tested on: DU-145
[18] = tested on: IGROV-1
[19] = tested on: EKVX
[20] = tested on: HCT-116
[21] = tested on: SNB-75
[22] = tested on: M14
[23] = tested on: NCI-H226
[24] = tested on: HOP-62
[25] = tested on: SR
[26] = tested on: TK-10
[27] = tested on: A498
[28] = tested on: MDA-MB-231
[29] = tested on: SF-295
[30] = tested on: OVCAR-3
[31] = tested on: RPMI-8226
[32] = tested on: LOX IMVI
[33] = tested on: T47D
[34] = tested on: OVCAR-4
[35] = tested on: CAKI-1
[36] = tested on: HOP-92
[37] = tested on: K562
[38] = tested on: NCI/ADR-RES
[39] = tested on: 786-0
[40] = tested on: UO-31
[41] = tested on: HCT-15
[42] = tested on: Malme-3M
[43] = tested on: HT-29
[44] = tested on: COLO 205
[45] = tested on: ACHN
[46] = tested on: Hs-578T
[47] = tested on: KM12

With `Cc1ccc(S(=O)(=O)n2cc(/C=C/C#N)c(-c3cn(S(=O)(=O)c4ccc(C)cc4)cc3-c3cn(S(=O)(=O)c4ccc(C)cc4)cc3/C=C/C#N)c2)cc1` the GI50 [1] was 87.7 µM (inactive), the GI50 [2] was > 100 µM (inactive) and the GI50 [3] was > 100 µM (inactive). The GI50 [4] was > 100 µM (inactive), the GI50 [5] was > 100 µM (inactive) and the GI50 [6] was > 100 µM (inactive). The GI50 [7] was 94.2 µM (inactive), the GI50 [8] was > 100 µM (inactive) and the GI50 [9] was > 100 µM (inactive). The GI50 [10] was > 100 µM (inactive), the GI50 [11] was > 100 µM (inactive) and the GI50 [12] was > 100 µM (inactive). For the same molecule, the GI50 [13] was > 100 µM (inactive), the GI50 [14] was > 100 µM (inactive) and the GI50 [15] was > 100 µM (inactive). The GI50 [16] was > 100 µM (inactive), the GI50 [17] was > 100 µM (inactive) and the GI50 [18] was > 100 µM (inactive). For the same molecule, the GI50 [19] was > 100 µM (inactive), the GI50 [20] was > 100 µM (inactive) and the GI50 [21] was > 100 µM (inactive). The GI50 [22] was 47 µM (inactive), the GI50 [23] was > 100 µM (inactive) and the GI50 [24] was > 100 µM (inactive). The GI50 [25] was > 100 µM (inactive), the GI50 [26] was 40.4 µM (inactive) and the GI50 [27] was > 100 µM (inactive). The GI50 [28] was 18.5 µM (inactive), the GI50 [29] was 44.8 µM (inactive) and the GI50 [30] was > 100 µM (inactive). For the same molecule, the GI50 [31] was 17.4 µM (inactive), the GI50 [32] was 93.8 µM (inactive) and the GI50 [33] was > 100 µM (inactive). The GI50 [34] was > 100 µM (inactive), the GI50 [35] was > 100 µM (inactive) and the GI50 [36] was 43.6 µM (inactive). The GI50 [37] was 57.4 µM (inactive), the GI50 [38] was > 100 µM (inactive) and the GI50 [39] was > 100 µM (inactive). For the same molecule, the GI50 [40] was 38.4 µM (inactive), the GI50 [41] was greater than 100 µM and the GI50 [42] was > 100 µM (inactive). The GI50 [43] was > 100 µM (inactive), the GI50 [44] was 58.7 µM (inactive) and the GI50 [45] was > 100 µM (inactive). For the same molecule, the GI50 [46] was 90.2 µM (inactive) and the GI50 [47] was 91.6 µM (inactive).
